Patent US10239887B2, “Positive allosteric modulators of the muscarinic acetylcholine receptor M4” (Vanderbilt University, priority 2016, dated 2019)
Counter-ions that a name gives are not always drawn. Like-named read-outs stand apart in the source and are kept apart here. Each block holds one molecule with its values, some of them ahead of it.

What was measured:
[1] = target: T1, rat mAChR M4 (Rattus norvegicus, UniProt P08485); experiment: mAChR M4 cell-based functional assay (calcium flux), rat M4; set-up: Emax: dose or concentration left out as unconfirmed; conditions: for EC50: read-out: Rat M4 EC50, CHO-K1 rM4-Gqi5 cells, calcium flux, increase in EC20 acetylcholine response
T1 sequence (P08485 1-478): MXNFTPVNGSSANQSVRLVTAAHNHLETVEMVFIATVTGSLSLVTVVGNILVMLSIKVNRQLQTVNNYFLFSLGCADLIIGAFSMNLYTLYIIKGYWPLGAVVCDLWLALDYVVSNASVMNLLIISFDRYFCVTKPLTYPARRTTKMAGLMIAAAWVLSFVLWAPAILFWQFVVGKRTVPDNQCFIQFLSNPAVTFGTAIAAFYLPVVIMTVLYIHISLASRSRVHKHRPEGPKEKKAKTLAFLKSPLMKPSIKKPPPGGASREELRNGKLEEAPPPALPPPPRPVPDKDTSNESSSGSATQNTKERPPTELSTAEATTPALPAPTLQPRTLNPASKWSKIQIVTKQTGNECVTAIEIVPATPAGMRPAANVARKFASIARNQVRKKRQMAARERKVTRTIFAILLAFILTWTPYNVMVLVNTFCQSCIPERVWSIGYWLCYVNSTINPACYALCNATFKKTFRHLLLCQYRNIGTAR

[2] = target: T2, human mAChR M4 (Homo sapiens, UniProt P08173); experiment: mAChR M4 cell-based functional assay (calcium flux), human M4
T2 sequence (P08173 1-479): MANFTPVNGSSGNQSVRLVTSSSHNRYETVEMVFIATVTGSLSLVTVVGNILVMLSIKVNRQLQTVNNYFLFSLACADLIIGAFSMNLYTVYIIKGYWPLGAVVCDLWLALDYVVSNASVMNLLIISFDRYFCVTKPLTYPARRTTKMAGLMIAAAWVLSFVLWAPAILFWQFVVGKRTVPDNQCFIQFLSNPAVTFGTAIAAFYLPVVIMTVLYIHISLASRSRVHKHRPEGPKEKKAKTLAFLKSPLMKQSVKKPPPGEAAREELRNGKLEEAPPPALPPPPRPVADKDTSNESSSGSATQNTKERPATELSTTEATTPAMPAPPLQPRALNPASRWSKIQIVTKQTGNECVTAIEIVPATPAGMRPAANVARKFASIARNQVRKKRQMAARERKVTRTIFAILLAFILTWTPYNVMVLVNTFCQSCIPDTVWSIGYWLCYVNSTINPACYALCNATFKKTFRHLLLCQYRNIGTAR

[3] = Human M4 EC50, CHO-K1 hM4-Gqi5 cells, calcium flux, increase in EC20 acetylcholine response
[4] = Human M4, % ACh maximum at 30 μM
[5] = Human M4 EC50 (nM), Table 10, calcium flux, PAM activity with EC20 acetylcholine
[6] = Table 10, % ACh maximum at 30 μM
[7] = Human M4 EC50 (nM), Table 11, calcium flux, PAM activity with EC20 acetylcholine
[8] = Table 11, % ACh maximum at 30 μM

Emax [1]: 46%
EC50 [1]: 2800 nM
EC50 [2, 3]: > 10000 nM
SMILES: FC(F)(F)c1cnc(N2CC(Nc3ncnc4c3sc3nccnc34)C2)nc1 [Compound 20, N-(1-(5-(trifluoromethyl)pyrimidin-2-yl)azetidin-3-yl)pyrazino[2′,3′:4,5] thieno[3,2-d]pyrimidin-4-amine]

Emax [1]: 60%
EC50 [1]: 521 nM
Emax [2, 4]: 45%
EC50 [2, 3]: 446 nM
SMILES: Cc1nnc2sc3c(NC4CCOCC4)ncnc3c2c1C [Compound 3, 3,4-dimethyl-N-(tetrahydro-2H-pyran-4-yl) pyrimido[4′,5′:4,5] thieno[2,3-c]pyridazin-8-amine]

Emax [1]: 54%
EC50 [1]: 1150 nM
Emax [2, 4]: 36%
EC50 [2, 3]: 456 nM
SMILES: Cc1cnc2sc3c(N4CC5(COC5)C4)ncnc3c2c1 [Compound 19, 6-(8-methylpyrido [3′,2′:4,5]thieno[3,2-d]pyrimidin-4-yl)-2-oxa-6-azaspiro[3.3]heptane]

Emax [2, 4]: 40.6%
EC50 [2, 3]: 1250 nM
SMILES: CCNc1ncnc2c1oc1nc(C)c(Cl)c(C)c12 [Compound 47, 8-chloro-N-ethyl-7,9-dimethyl-pyrido[3′,2′:4,5]furo[3,2-d]pyrimidin-4-amine hydrochloride]

EC50 [2, 5]: 685 nM
Emax [2, 6]: 52.4%
SMILES: Cc1c(Cl)cnc2sc3c(N4CCC(F)(F)C4)ncnc3c12 [Compound 216, 8-chloro-4-(3,3-difluoropyrrolidin-1-yl)-9-methyl-pyrido [3′,2′:4,5]thieno[3,2-d] pyridimidine]

EC50 [2, 5]: 463 nM
Emax [2, 6]: 88.4%
SMILES: COCC1CN(C(=O)c2ccc(CNc3ncnc4c3sc3nnc(C)c(C)c34)cc2)C1 [Compound 127, [4-[[(3,4-dimethylpyrimido [4′,5′:4,5]thieno[2,3-c]pyridazin-8-yl)amino]methyl]phenyl]-[3-(methoxymethyl)azetidin-1-yl] methanone]

EC50 [2, 5]: 724 nM
Emax [2, 6]: 93.2%
SMILES: Cc1nnc2sc3c(NCc4ccc(C(=O)N5CCC(F)(F)CC5)cc4)ncnc3c2c1C [Compound 130, (4,4-difluoro-1-piperidyl)-[4-[[(3,4-dimethylpyrimido [4′,5′:4,5]thieno[2,3-c]pyridazin-8-yl)amino]methyl]phenyl]methanone]

Emax [2, 6]: 62.1%
SMILES: Cc1nnc2sc3c(N4CC(C)(O)C4)ncnc3c2c1C [Compound 80, 1-(3,4-dimethylpyrimido [4′,5′:4,5]thieno[2,3-c]pyridazin-8-yl)-3-methyl-azetidin-3-ol]

EC50 [2, 5]: 1210 nM
Emax [2, 6]: 34.7%
SMILES: Cc1ncc(CN2CC3(CC(Nc4ncnc5c4sc4nnc(C)c(C)c45)C3)C2)cn1 [Compound 166, 3,4-dimethyl-N-[2-[(2-methylpyrimidin-5-yl)methyl]-2-azaspiro [3.3]heptan-6-yl]pyrimido [4′,5′:4,5]thieno[2,3-c] pyridazin-8-amine]

Emax [2, 4]: 57.9%
EC50 [2, 3]: 1750 nM
SMILES: Cc1nnc2oc3c(NC4CC(F)(F)C4)ncnc3c2c1C [Compound 72, N-(3,3-difluorocyclobutyl)-3,4-dimethyl-pyrimido [4′,5′:4,5]furo[2,3-c]pyridazin-8-amine]

EC50 ([2]; Human M4 EC50 (nM), Table 10, unit μM (bounds)): > 10000 nM
Emax [2, 6]: 37.3%
SMILES: COc1cc(CNc2ncnc3c2sc2ncc(Cl)c(C)c23)cc(OC)c1 [Compound 230, 8-chloro-N-[(3,5-dimethoxyphenyl)methyl]-9-methyl-pyrido [3′,2′:4,5]thieno[3,2-d] pyrimidin-4-amine]

EC50 [2, 5]: 114 nM
Emax [2, 6]: 87.4%
SMILES: Cc1nnc2sc3c(NCc4ccc(C(=O)NC5CCCC5)cc4)ncnc3c2c1C [Compound 153, N-cyclopentyl-4-[[(3,4-dimethylpyrimido [4′,5′:4,5]thieno[2,3-c]pyridazin-8-yl)amino]methyl]benzamide]

EC50 [2, 7]: 659 nM
Emax [2, 8]: 74.9%
SMILES: Cc1nnc2sc3c(NC4CN(c5ncc(Cl)cc5F)C4)ncnc3c2c1C [Compound 315, N-[1-(5-chloro-3-fluoro-2-pyridyl)azetidin-3-yl]-3,4-dimethyl-pyrimido[4′,5′:4,5]thieno [2,3-c]pyridazin-8-amine]

Emax [2, 4]: 36%
EC50 [2, 3]: ≥ 10000 nM
SMILES: Cc1nnc2sc3c(NC4CN(c5ccc(C(F)(F)F)nc5)C4)ncnc3c2c1C [Compound 22, 3,4-dimethyl-N-(1-(6-(trifluoromethyl)pyridin-3-yl)azetidin-3-yl) pyrimido[4′,5′:4,5]thieno [2,3-c]pyridazin-8-amine]

EC50 [2, 5]: 1160 nM
Emax [2, 6]: 96.5%
SMILES: Cc1nnc2sc3c(NCc4ccc(F)c(C(=O)NC5CC5(C)C)c4)ncnc3c2c1C (centres unmarked) [Compound 181, N-(2,2-dimethylcyclopropyl)-5-[[(3,4-dimethylpyrimido [4′,5′:4,5]thieno[2,3-c]pyridazin-8-yl)amino]methyl]-2-fluoro-benzamide]

SMILES: Cc1nnc2sc3c(NCc4ccc(CN5CCOCC5)cc4)ncnc3c2c1C [Compound 108, 3,4-dimethyl-N-[[4-(morpholinomethyl)phenyl]methyl]pyrimido[4′,5′:4,5] thieno[2,3-c] pyridazin-8-amine hydrochloride]
Emax [2]: 76.8%
EC50 [2, 5]: 148 nM

EC50 [2, 5]: 192 nM
Emax [2, 6]: 61.3%
SMILES: Cc1nnc2sc3c(NCc4ccc(S(C)(=O)=O)cc4)ncnc3c2c1C [Compound 93, 3,4-dimethyl-N-[(4-methylsulfonylphenyl)methyl] pyrimido[4′,5′:4,5]thieno [2,3-c]pyridazin-8-amine]

EC50 [2, 7]: 362 nM
Emax [2, 8]: 48.5%
SMILES: Cc1nnc2sc3c(N4CCC(COc5ccnc(Cl)c5)C4)ncnc3c2c1C (centres unmarked) [Compound 347, 8-[3-[(2-chloro-4-pyridyl)oxymethyl]pyrrolidin-1-yl]-3,4-dimethyl-pyrimido[4′,5′:4,5] thieno[2,3-c]pyridazine dihydrochloride]

EC50 [2, 5]: 505 nM
Emax [2, 6]: 99.7%
SMILES: Cc1nnc2sc3c(NCc4ccc(F)c(C(=O)NC5CC(F)C5)c4)ncnc3c2c1C (centres unmarked) [Compound 183, 5-[[(3,4-dimethylpyrimido [4′,5′:4,5]thieno[2,3-c]pyridazin-8-yl)amino]methyl]-2-fluoro-N-(3-fluorocyclobutyl) benzamide]

EC50 [2, 5]: 2290 nM
Emax [2, 6]: 61.2%
SMILES: Cc1nnc2oc3c(NCc4ccc(C(C)(C)O)cc4)ncnc3c2c1C [Compound 299, 2-[4-[[(3,4-dimethylpyrimido [4′,5′:4,5]furo[2,3-c]pyridazin-8-yl)amino]methyl]phenyl]propan-2-ol]

EC50 [2, 7]: 101 nM
Emax [2, 8]: 72.9%
SMILES: Cc1nnc2sc3c(N4CC[C@@H](Oc5cccnc5)C4)ncnc3c2c1C [Compound 340, 3,4-dimethyl-8-[(3R)-3-(3-pyridyloxy)pyrrolidin-1-yl]pyrimido[4′,5′:4,5] thieno[2,3-c]pyridazine]

EC50 [2, 5]: 1010 nM
Emax [2, 6]: 39.7%
SMILES: Cc1nc2oc3c(NC4CN(c5ncc(C(F)(F)F)cn5)C4)ncnc3c2c(C)c1Cl [Compound 241, 8-chloro-7,9-dimethyl-N-[1-[5-(trifluoromethyl)pyrimidin-2-yl]yl]azetidin-3-yl]pyrido [3′,2′:4,5]furo[3,2-d] pyrimidin-4-amine hydrochloride]

EC50 [2, 5]: 841 nM
Emax [2, 6]: 63%
SMILES: Cc1c(Cl)cnc2sc3c(NC4CN(c5ncc(F)cn5)C4)ncnc3c12 [Compound 225, 8-chloro-N-[1-(5-fluoropyrimidin-2-yl)azetidin-3-yl]-9-methyl-pyrido [3′,2′:4,5]thieno[3,2-d] pyrimidin-4-amine]

EC50 [2, 7]: 276 nM
Emax [2, 8]: 76%
SMILES: Cc1cc(O[C@H]2CN(c3ncnc4c3sc3nnc(C)c(C)c34)C[C@@H]2C)ccn1 [Compound 358, 3,4-dimethyl-8-[(3S,4R)-3-methyl-4-[(2-methyl-4-pyridyl)oxy]pyrrolidin-1-yl]pyrimido[4′,5′:4,5] thieno[2,3-c] pyridazine dihydrochloride]

EC50 [2, 5]: 3120 nM
Emax [2, 6]: 62.6%
SMILES: Cc1nnc2sc3c(NC4CCN(c5cccc(F)c5F)C4)ncnc3c2c1C (centres unmarked) [Compound 81, N-[1-(2,3-difluorophenyl)pyrrolidin-3-yl]-3,4-dimethyl-pyrimido [4′,5′:4,5]thieno[2,3-c] pyridazin-8-amine]

EC50 [2, 7]: 216 nM
Emax [2, 8]: 83.8%
SMILES: Cc1nnc2sc3c(NCc4ccc(C(=O)NC5CCC5)c(Cl)c4)ncnc3c2c1C [Compound 316, 2-chloro-N-cyclobutyl-4-[[(3,4-dimethylpyrimido [4′,5′:4,5]thieno[2,3-c]pyridazin-8-yl)amino]methyl]benzamide]
